These results are taken from ChEMBL document CHEMBL4400520, “Benzofuran-isatin-imine hybrids tethered via different length alkyl linkers: Design, synthesis and in vitro evaluation of anti-tubercular and anti-bacterial activities as well as cytotoxicity” (Eur J Med Chem, 2019).

Usually MIC stands for the smallest concentration in the dilution series that meets the test's criterion for growth inhibition. The term CC50 denotes the concentration that lowers cell viability or growth by half. Usually MIC90 stands for an inhibitory concentration at the 90% level, which refers to growth in some studies and to a panel of isolates in others.

Series [1] relates to Mycobacterium tuberculosis. Kind of series: Antitubercular activity against Mycobacterium tuberculosis H37Rv. In kind it is functional.
Series [2] can be described thus: Cytotoxicity against African green monkey Vero cells assessed as reduction in cell viability after 72 hrs by MTT assay. To be noted: chlorocebus sabaeus, Vero cells. In kind it is cell-based. A general note: Formazan colour is commonly taken as a measure of viable cells.
A short description of series [3]: Selectivity index, ratio of CC50 for African green monkey Vero cells to MIC for Mycobacterium tuberculosis H37Rv. In kind it is toxicity. To be noted: read-out: Selectivity Index.
Series [4] relates to Staphylococcus epidermidis. Kind of series: Antibacterial activity against methicillin-sensitive Staphylococcus epidermidis. In kind it is functional.
The subject of series [5] is Staphylococcus epidermidis. Kind of series: Antibacterial activity against methicillin-resistant Staphylococcus epidermidis. In kind it is functional.
Series [6] deals with Staphylococcus aureus. In words: Antibacterial activity against methicillin-sensitive Staphylococcus aureus. In kind it is functional.
For series [7], the system named is Staphylococcus aureus. In words: Antibacterial activity against methicillin-resistant Staphylococcus aureus. In kind it is functional.
Series [8] relates to Enterococcus faecalis. In words: Antibacterial activity against Enterococcus faecalis. In kind it is functional.
Series [9] relates to Enterococcus faecium. In words: Antibacterial activity against Enterococcus faecium. In kind it is functional.
For series [10], the system named is Escherichia coli. Kind of series: Antibacterial activity against Escherichia coli. In kind it is functional.
In series [11] the test system is Klebsiella pneumoniae. In words: Antibacterial activity against Klebsiella pneumoniae. The class given is functional.
For series [12], the system named is Pseudomonas aeruginosa. In words: Antibacterial activity against Pseudomonas aeruginosa ATCC 27853. In kind it is functional.
Series [13] has as its system Acinetobacter calcoaceticus. In words: Antibacterial activity against Acinetobacter calcoaceticus. The class given is functional.
Series [14] concerns Enterobacter cloacae. In words: Antibacterial activity against Enterobacter cloacae. The class given is functional.
The test system of series [15] is Klebsiella aerogenes. In words: Antibacterial activity against Enterobacter aerogenes. In kind it is functional.
For series [16], the system named is Proteus mirabilis. In words: Antibacterial activity against Proteus mirabilis. In kind it is functional.
For series [17], the system named is Citrobacter freundii. In words: Antibacterial activity against Citrobacter freundii. The class given is functional.

Values after ≈ are worked out from the molar mass of the structure shown. Where only a bound is given, the exact number is not on record here.

In series [1], `CCOC(=O)c1c(-c2ccc(OC)cc2)oc2ccc(OCCCCCN3C(=O)C(=O)c4cc(F)ccc43)cc12` showed an MIC of 0.064 µg/mL (≈ 0.117 µM). Further, the cytotoxic concentration (CC50) at 72 h in series [2] was 512 µg/mL (≈ 938 µM). Besides, the selectivity ratio in series [3] stood at 8000. Also, the MIC90 in series [4] turned out to be 1 µg/mL (≈ 1.83 µM); in series [5], 8 µg/mL (≈ 14.7 µM); in [6], 2 µg/mL (≈ 3.67 µM); in series [7] it was 2 µg/mL (≈ 3.67 µM); in series [8], 4 µg/mL (≈ 7.33 µM); in series [9] it was 64 µg/mL (≈ 117 µM). Also, the MIC90 in [10] is 0.25 µg/mL (≈ 0.458 µM); in [11], 2 µg/mL (≈ 3.67 µM); in [12], 8 µg/mL (≈ 14.7 µM); in series [13] it was 8 µg/mL (≈ 14.7 µM); in [14], 1 µg/mL (≈ 1.83 µM); in [15], 1 µg/mL (≈ 1.83 µM). Moreover, the MIC90 in [16] is 0.25 µg/mL (≈ 0.458 µM); in series [17], 1 µg/mL (≈ 1.83 µM).

In the case of `CCO/N=C1\C(=O)N(CCCOc2ccc3oc(-c4ccc(OC)cc4)c(C(=O)OCC)c3c2)c2ccc(OC)cc21`, in [1], the MIC was under 0.016 µg/mL. In addition, the cytotoxic concentration (CC50) at 72 h in series [2] was determined as 32 µg/mL (≈ 55.9 µM). For the same compound, the selectivity ratio in [3] was over 4000. The MIC90 amounted to 1 µg/mL (≈ 1.75 µM) in [4]; 8 µg/mL (≈ 14 µM) in series [5]; 4 µg/mL (≈ 6.99 µM) in series [6]; 8 µg/mL (≈ 14 µM) in series [7]; 8 µg/mL (≈ 14 µM) in [8]; 64 µg/mL (≈ 112 µM) in series [9]. The MIC90 was 0.5 µg/mL (≈ 0.873 µM) in [10]; 2 µg/mL (≈ 3.49 µM) in series [11]; 4 µg/mL (≈ 6.99 µM) in series [12]; 4 µg/mL (≈ 6.99 µM) in series [13]; 1 µg/mL (≈ 1.75 µM) in series [14]; 2 µg/mL (≈ 3.49 µM) in series [15]. Further, the MIC90 in series [16] was determined as 4 µg/mL (≈ 6.99 µM); in [17] it was 2 µg/mL (≈ 3.49 µM).

Compound `CCOC(=O)c1c(-c2ccc(OC)cc2)oc2ccc(OCCCCN3C(=O)/C(=N\OC)c4cc(F)ccc43)cc12` showed a minimal inhibitory concentration (MIC) in [1] of 0.031 µg/mL (≈ 0.0553 µM). The CC50 at 72 h in [2] was found to be 32 µg/mL (≈ 57.1 µM). Moreover, in [3], the selectivity ratio is 1030. Further, the MIC90 was 0.5 µg/mL (≈ 0.892 µM) in [4]; 2 µg/mL (≈ 3.57 µM) in [5]; 1 µg/mL (≈ 1.78 µM) in series [6]; 4 µg/mL (≈ 7.14 µM) in series [7]; 2 µg/mL (≈ 3.57 µM) in [8]; 16 µg/mL (≈ 28.5 µM) in [9]. The MIC90 in series [10] is 0.25 µg/mL (≈ 0.446 µM); in [11] it was 2 µg/mL (≈ 3.57 µM); in series [12] it was 8 µg/mL (≈ 14.3 µM); in series [13] it was 4 µg/mL (≈ 7.14 µM); in series [14], 0.5 µg/mL (≈ 0.892 µM); in series [15], 0.5 µg/mL (≈ 0.892 µM). The MIC90 in series [16] and in series [17] was 0.25 µg/mL (≈ 0.446 µM) throughout.

`CCO/N=C1\C(=O)N(CCCCCCOc2ccc3oc(-c4ccc(OC)cc4)c(C(=O)OCC)c3c2)c2ccccc21` yielded a minimal inhibitory concentration (MIC) in [1] of under 0.016 µg/mL. The cytotoxic concentration (CC50) at 72 h in series [2] was determined as 16 µg/mL (≈ 27.4 µM). Besides, in series [3], the selectivity ratio was over 1000. For the same compound, the MIC90 is 1 µg/mL (≈ 1.71 µM) in [4]; 8 µg/mL (≈ 13.7 µM) in [5]; 1 µg/mL (≈ 1.71 µM) in series [6]; 1 µg/mL (≈ 1.71 µM) in [7]; 2 µg/mL (≈ 3.42 µM) in series [8]; 32 µg/mL (≈ 54.7 µM) in series [9]. Moreover, the MIC90 was 0.5 µg/mL (≈ 0.855 µM) in series [10]; 1 µg/mL (≈ 1.71 µM) in [11]; 1 µg/mL (≈ 1.71 µM) in [12]; 2 µg/mL (≈ 3.42 µM) in series [13]; 0.5 µg/mL (≈ 0.855 µM) in series [14]; 0.25 µg/mL (≈ 0.428 µM) in series [15]. Further, the MIC90 in series [16] stood at 0.25 µg/mL (≈ 0.428 µM); in series [17], 1 µg/mL (≈ 1.71 µM).

`CCOC(=O)c1c(-c2ccc(F)cc2)oc2ccc(OCCCCCCN3C(=O)/C(=N\OC)c4cc(F)ccc43)cc12`: the lowest concentration to inhibit growth in series [1] (MIC) was 0.218 µg/mL (≈ 0.378 µM). Further, in series [2], the CC50 at 72 h turned out to be 16 µg/mL (≈ 27.7 µM). Also, the selectivity ratio in series [3] is 73. Moreover, the MIC90 in [4] was determined as 0.25 µg/mL (≈ 0.434 µM); in series [5], 8 µg/mL (≈ 13.9 µM); in series [6] it was 2 µg/mL (≈ 3.47 µM); in series [7], 1 µg/mL (≈ 1.73 µM); in series [8], 1 µg/mL (≈ 1.73 µM); in series [9] it was 8 µg/mL (≈ 13.9 µM). The MIC90 in series [10] was 0.5 µg/mL (≈ 0.867 µM); in [11] it was 2 µg/mL (≈ 3.47 µM); in series [12] it was 2 µg/mL (≈ 3.47 µM); in series [13], 4 µg/mL (≈ 6.94 µM); in series [14] it was 0.25 µg/mL (≈ 0.434 µM); in [15] it was 0.25 µg/mL (≈ 0.434 µM). The MIC90 in series [16] and in series [17] was 0.125 µg/mL (≈ 0.217 µM) in each case.

With `CCOC(=O)c1c(-c2ccc(OC)cc2)oc2ccc(OCCCCCN3C(=O)/C(=N\OC)c4cc(F)ccc43)cc12`, the MIC in [1] is under 0.016 µg/mL. In addition, the 50% cytotoxic concentration (CC50) at 72 h in [2] amounted to 32 µg/mL (≈ 55.7 µM). Moreover, the selectivity ratio in series [3] is over 2000. Further, the MIC90 in [4] worked out at 0.5 µg/mL (≈ 0.87 µM); in series [5] it was 4 µg/mL (≈ 6.96 µM); in series [6], 4 µg/mL (≈ 6.96 µM); in [7] it was 2 µg/mL (≈ 3.48 µM); in series [8], 1 µg/mL (≈ 1.74 µM); in series [9], 16 µg/mL (≈ 27.8 µM). Also, the MIC90 in series [10] was 0.125 µg/mL (≈ 0.218 µM); in series [11], 0.5 µg/mL (≈ 0.87 µM); in series [12], 1 µg/mL (≈ 1.74 µM); in [13] it was 1 µg/mL (≈ 1.74 µM); in series [14] it was 2 µg/mL (≈ 3.48 µM); in series [15], 0.125 µg/mL (≈ 0.218 µM). In addition, the MIC90 was determined as 0.06 µg/mL (≈ 0.104 µM) in series [16] and 0.125 µg/mL (≈ 0.218 µM) in series [17].
